pIC50, pKi: −log10 of the molar value. Active and inactive are the calls of the source. The calls are words filed in the database; no cut-off is given here.
Legend:
[1] = target: T1, Protein cereblon/Bromodomain-containing protein 4 (Homo sapiens) (UniProt O60885+Q96SW2); test: PROTAC activity at CRBN/BRD4-L in human MM1.S cells assessed as induction of protein degradation at 1 uM measured after 1 to 24 hrs by Western blot analysis; format: cell-based; conditions: time 1-24 hrs
[2] = target: T1, Protein cereblon/Bromodomain-containing protein 4 (Homo sapiens); test: PROTAC activity at CRBN/BRD4-L in human HeLa cells assessed as induction of protein degradation at 1 to 50 uM measured after 24 hrs by Western blot analysis; format: cell-based; conditions: dose 1-50 µM
HGC-27 = test: Antiproliferative activity against human HGC-27 cells assessed as cell growth inhibition measured after 4 days by CCK-8 assay; format: functional, cell-based; conditions: HGC-27, 96 h
HepG2 = test: Antiproliferative activity against human HepG2 cells assessed as cell growth inhibition measured after 4 days by CCK-8 assay; format: functional, cell-based; conditions: HepG2, 96 h
[3] = target: T2, Protein cereblon/Bromodomain-containing protein 3 (Homo sapiens) (UniProt Q15059+Q96SW2); test: PROTAC activity at CRBN/BRD3 in human MV4-11 cells assessed as induction of protein degradation at 0.5 to 10 uM measured after 24 hrs by Western blot analysis; format: cell-based; conditions: dose 0.5-10 µM
T2 sequence (Q15059 2-726 limits assumed): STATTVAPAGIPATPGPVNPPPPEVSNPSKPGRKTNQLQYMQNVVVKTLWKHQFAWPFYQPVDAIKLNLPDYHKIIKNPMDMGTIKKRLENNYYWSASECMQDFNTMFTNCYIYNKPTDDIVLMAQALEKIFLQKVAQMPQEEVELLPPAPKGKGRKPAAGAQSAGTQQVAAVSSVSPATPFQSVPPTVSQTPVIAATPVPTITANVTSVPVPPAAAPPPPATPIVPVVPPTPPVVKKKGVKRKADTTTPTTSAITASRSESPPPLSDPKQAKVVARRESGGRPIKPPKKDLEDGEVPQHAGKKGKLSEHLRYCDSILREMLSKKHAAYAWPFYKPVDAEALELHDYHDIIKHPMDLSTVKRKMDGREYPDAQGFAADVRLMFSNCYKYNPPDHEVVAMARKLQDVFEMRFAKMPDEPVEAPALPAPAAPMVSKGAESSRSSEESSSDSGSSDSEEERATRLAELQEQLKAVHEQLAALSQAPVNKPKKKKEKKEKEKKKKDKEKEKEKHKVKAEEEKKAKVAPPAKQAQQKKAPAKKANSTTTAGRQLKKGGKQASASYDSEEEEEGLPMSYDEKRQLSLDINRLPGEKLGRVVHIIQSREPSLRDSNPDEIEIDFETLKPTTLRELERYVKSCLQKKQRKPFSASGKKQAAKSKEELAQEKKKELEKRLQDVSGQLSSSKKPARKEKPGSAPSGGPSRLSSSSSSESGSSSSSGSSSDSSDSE
T2 sequence (Q96SW2 whole entry partner): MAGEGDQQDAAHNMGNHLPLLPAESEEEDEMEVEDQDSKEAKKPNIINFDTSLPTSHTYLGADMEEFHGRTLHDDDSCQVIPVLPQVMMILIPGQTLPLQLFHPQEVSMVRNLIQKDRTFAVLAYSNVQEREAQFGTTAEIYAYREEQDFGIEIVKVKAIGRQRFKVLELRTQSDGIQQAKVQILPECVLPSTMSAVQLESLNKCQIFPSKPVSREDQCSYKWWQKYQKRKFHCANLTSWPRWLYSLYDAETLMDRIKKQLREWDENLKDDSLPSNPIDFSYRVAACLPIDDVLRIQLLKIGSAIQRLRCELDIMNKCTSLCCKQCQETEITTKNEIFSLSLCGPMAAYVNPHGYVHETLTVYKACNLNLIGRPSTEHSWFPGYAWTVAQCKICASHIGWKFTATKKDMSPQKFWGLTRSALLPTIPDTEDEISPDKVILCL

[4] = target: T2, Protein cereblon/Bromodomain-containing protein 3 (Homo sapiens); test: PROTAC activity at CRBN/BRD3 in human MCF7 cells assessed as induction of protein degradation at 1 to 50 uM measured after 24 hrs by Western blot analysis; format: cell-based; conditions: dose 1-50 µM
MCF7 = test: Antiproliferative activity against human MCF7 cells assessed as cell growth inhibition measured after 4 days by CCK-8 assay; format: functional, cell-based; conditions: MCF7, 96 h
[5] = target: T1, Protein cereblon/Bromodomain-containing protein 4 (Homo sapiens); test: PROTAC activity at CRBN/BRD4-S in human MM1.S cells assessed as induction of protein degradation at 1 uM measured after 1 to 24 hrs by Western blot analysis; format: cell-based; conditions: time 1-24 hrs
[6] = target: T1, Protein cereblon/Bromodomain-containing protein 4 (Homo sapiens); test: PROTAC activity at CRBN/BRD4-L in human MM1.S cells assessed as induction of protein degradation at 1 uM measured around 1 to 3 hrs by Western blot analysis; format: cell-based; conditions: time 1-3 hrs
MM1.S [7] = test: Downregulation of c-Myc expression in human MM1.S cells at 1 uM measured after 1 to 24 hrs by Western blot analysis; format: functional, cell-based; conditions: time 1-24 hrs
[8] = target: T1, Protein cereblon/Bromodomain-containing protein 4 (Homo sapiens); test: PROTAC activity at CRBN/BRD4-S in human MV4-11 cells assessed as induction of protein degradation at 0.5 to 10 uM measured after 24 hrs by Western blot analysis; format: cell-based; conditions: dose 0.5-10 µM
[9] = target: T3, Protein cereblon/Bromodomain-containing protein 2 (Homo sapiens) (UniProt P25440+Q96SW2); test: PROTAC activity at CRBN/BRD2 in human HGC-27 cells assessed as induction of protein degradation at 1 uM measured around 1 to 3 hrs by Western blot analysis; format: cell-based; conditions: time 1-3 hrs
T3 sequence (P25440 whole entry, looked up): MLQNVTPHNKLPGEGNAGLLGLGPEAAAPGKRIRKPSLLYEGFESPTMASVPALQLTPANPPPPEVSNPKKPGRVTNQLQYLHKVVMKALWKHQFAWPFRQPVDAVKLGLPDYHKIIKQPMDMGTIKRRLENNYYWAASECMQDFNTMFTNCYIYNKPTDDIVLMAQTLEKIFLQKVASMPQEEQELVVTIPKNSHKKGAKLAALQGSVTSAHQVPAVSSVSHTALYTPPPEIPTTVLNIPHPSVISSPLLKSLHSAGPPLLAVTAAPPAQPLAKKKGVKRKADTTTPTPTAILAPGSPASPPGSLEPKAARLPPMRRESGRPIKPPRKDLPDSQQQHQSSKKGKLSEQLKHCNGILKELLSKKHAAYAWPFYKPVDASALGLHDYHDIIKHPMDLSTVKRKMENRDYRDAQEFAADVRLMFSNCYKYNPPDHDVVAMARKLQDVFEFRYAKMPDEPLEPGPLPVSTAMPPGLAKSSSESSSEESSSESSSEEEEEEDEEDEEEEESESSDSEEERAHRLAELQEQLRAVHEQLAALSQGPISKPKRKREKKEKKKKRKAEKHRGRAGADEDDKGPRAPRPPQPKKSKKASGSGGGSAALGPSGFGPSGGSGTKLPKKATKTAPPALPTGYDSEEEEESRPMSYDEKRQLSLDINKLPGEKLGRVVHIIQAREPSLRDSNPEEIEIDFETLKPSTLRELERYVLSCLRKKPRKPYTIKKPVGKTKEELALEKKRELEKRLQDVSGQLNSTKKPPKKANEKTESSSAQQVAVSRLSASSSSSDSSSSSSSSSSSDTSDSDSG
T3 sequence (Q96SW2 whole entry, looked up): as the sequence (Q96SW2 whole entry partner) above

[10] = target: T1, Protein cereblon/Bromodomain-containing protein 4 (Homo sapiens); test: PROTAC activity at CRBN/BRD4-L in human MV4-11 cells assessed as induction of protein degradation at 0.5 to 10 uM measured after 24 hrs by Western blot analysis; format: cell-based; conditions: dose 0.5-10 µM
[11] = target: T2, Protein cereblon/Bromodomain-containing protein 3 (Homo sapiens); test: PROTAC activity at CRBN/BRD3 in human MCF7 cells assessed as induction of protein degradation at 1 uM measured around 1 to 3 hrs by Western blot analysis; format: cell-based; conditions: time 1-3 hrs
[12] = target: T1, Protein cereblon/Bromodomain-containing protein 4 (Homo sapiens); test: PROTAC activity at CRBN/BRD4-L in human MCF7 cells assessed as induction of protein degradation at 1 uM measured around 1 to 3 hrs by Western blot analysis; format: cell-based; conditions: time 1-3 hrs
[13] = target: T3, Protein cereblon/Bromodomain-containing protein 2 (Homo sapiens); test: PROTAC activity at CRBN/BRD2 in human MV4-11 cells assessed as induction of protein degradation at 0.5 to 10 uM measured after 24 hrs by Western blot analysis; format: cell-based; conditions: dose 0.5-10 µM
[14] = target: T3, Protein cereblon/Bromodomain-containing protein 2 (Homo sapiens); test: PROTAC activity at CRBN/BRD2 in human MM1.S cells assessed as induction of protein degradation at 1 uM measured around 1 to 3 hrs by Western blot analysis; format: cell-based; conditions: time 1-3 hrs
[15] = target: T2, Protein cereblon/Bromodomain-containing protein 3 (Homo sapiens); test: PROTAC activity at CRBN/BRD3 in human HeLa cells assessed as induction of protein degradation at […] measured after 24 hrs by Western blot analysis; format: cell-based; conditions: dose lower 1.0 µM
MM1.S [16] = test: Antiproliferative activity against human MM1.S cells assessed as cell growth inhibition measured after 4 days by CellTitre-Glo assay; format: functional, cell-based; conditions: 96 h
HeLa = test: Antiproliferative activity against human HeLa cells assessed as cell growth inhibition measured after 4 days by CCK-8 assay; format: functional, cell-based; conditions: 96 h
A549 = test: Antiproliferative activity against human A549 cells assessed as cell growth inhibition measured after 4 days by CCK-8 assay; format: functional, cell-based; conditions: A549, 96 h
[17] = target: T2, Protein cereblon/Bromodomain-containing protein 3 (Homo sapiens); test: PROTAC activity at CRBN/BRD3 in human MM1.S cells assessed as induction of protein degradation at 1 uM measured after 1 to 24 hrs by Western blot analysis; format: cell-based; conditions: time 1-24 hrs
[18] = target: T4, Bromodomain-containing protein 3 (Homo sapiens, UniProt Q15059); test: Binding affinity to recombinant human BRD3 BD2 (306 to 417 residues) assessed as inhibition constant by fluorescence polarization binding assay
T4 sequence (Q15059 whole entry, the tested form may be a part): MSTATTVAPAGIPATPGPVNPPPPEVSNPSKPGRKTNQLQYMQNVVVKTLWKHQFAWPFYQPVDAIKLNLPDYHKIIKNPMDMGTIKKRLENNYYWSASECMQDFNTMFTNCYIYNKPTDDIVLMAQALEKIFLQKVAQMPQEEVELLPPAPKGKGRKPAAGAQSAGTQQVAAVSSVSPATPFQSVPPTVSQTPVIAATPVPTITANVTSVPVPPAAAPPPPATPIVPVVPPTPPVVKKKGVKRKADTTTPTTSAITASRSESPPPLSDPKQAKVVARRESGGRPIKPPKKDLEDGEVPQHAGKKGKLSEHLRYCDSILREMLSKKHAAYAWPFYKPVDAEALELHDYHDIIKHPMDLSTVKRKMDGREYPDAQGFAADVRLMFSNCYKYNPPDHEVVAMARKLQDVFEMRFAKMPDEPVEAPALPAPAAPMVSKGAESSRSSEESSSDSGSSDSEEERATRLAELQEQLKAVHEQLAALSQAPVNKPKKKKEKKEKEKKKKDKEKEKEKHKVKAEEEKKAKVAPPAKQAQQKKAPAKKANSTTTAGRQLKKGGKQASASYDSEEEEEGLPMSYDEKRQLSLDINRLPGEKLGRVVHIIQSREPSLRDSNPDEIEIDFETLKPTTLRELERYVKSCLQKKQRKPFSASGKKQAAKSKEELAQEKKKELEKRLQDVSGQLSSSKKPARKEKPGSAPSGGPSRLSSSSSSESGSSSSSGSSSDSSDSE

[19] = target: T3, Protein cereblon/Bromodomain-containing protein 2 (Homo sapiens); test: PROTAC activity at CRBN/BRD2 in human MCF7 cells assessed as induction of protein degradation at 1 uM measured around 1 to 3 hrs by Western blot analysis; format: cell-based; conditions: time 1-3 hrs
[20] = target: T1, Protein cereblon/Bromodomain-containing protein 4 (Homo sapiens); test: PROTAC activity at CRBN/BRD4-L in human MCF7 cells assessed as induction of protein degradation at 1 to 50 uM measured after 24 hrs by Western blot analysis; format: cell-based; conditions: dose 1-50 µM
[21] = target: T2, Protein cereblon/Bromodomain-containing protein 3 (Homo sapiens); test: PROTAC activity at CRBN/BRD3 in human MM1.S cells assessed as induction of protein degradation at 1 uM measured around 1 to 3 hrs by Western blot analysis; format: cell-based; conditions: time 1-3 hrs
[22] = target: T1, Protein cereblon/Bromodomain-containing protein 4 (Homo sapiens); test: PROTAC activity at CRBN/BRD4-L in human HGC-27 cells assessed as induction of protein degradation at 1 uM measured around 1 to 3 hrs by Western blot analysis; format: cell-based; conditions: time 1-3 hrs
[23] = target: T2, Protein cereblon/Bromodomain-containing protein 3 (Homo sapiens); test: PROTAC activity at CRBN/BRD3 in human MM1.S cells assessed as induction of protein degradation measured after 24 hrs by Western blot analysis; format: cell-based
[24] = target: T4, Bromodomain-containing protein 3; test: Binding affinity to recombinant human BRD3 BD1 (24 to 144 residues) assessed as inhibition constant by fluorescence polarization binding assay
[25] = target: T1, Protein cereblon/Bromodomain-containing protein 4 (Homo sapiens); test: PROTAC activity at CRBN/BRD4-L in human MM1.S cells assessed as induction of protein degradation measured after 24 hrs by Western blot analysis; format: cell-based
[26] = target: T3, Protein cereblon/Bromodomain-containing protein 2 (Homo sapiens); test: PROTAC activity at CRBN/BRD2 in human MM1.S cells assessed as induction of protein degradation at 1 uM measured after 1 to 24 hrs by Western blot analysis; format: cell-based; conditions: time 1-24 hrs
[27] = target: T2, Protein cereblon/Bromodomain-containing protein 3 (Homo sapiens); test: PROTAC activity at CRBN/BRD3 in human HGC-27 cells assessed as induction of protein degradation at 1 uM measured around 1 to 3 hrs by Western blot analysis; format: cell-based; conditions: time 1-3 hrs
MV4-11 = test: Antiproliferative activity against human MV4-11 cells assessed as cell growth inhibition measured after 3 days by CellTitre-Glo assay; format: functional, cell-based; conditions: MV4-11, 72 h

T1 sequence (Q96SW2 whole entry, looked up, other chains not shown): as the sequence (Q96SW2 whole entry partner) above

Activity [1]: Active | Activity [2]: Active | pIC50 (HepG2): 4.70 | Activity [3]: Active | Activity [4]: Active | pIC50 (MCF7): 5.28 | Activity [5]: inactive | Activity [6]: Active | Activity [8]: Active | Activity [9]: Active | Activity [10]: Active | Activity [11]: Active | Activity [12]: Active | Activity [13]: Active | Activity [14]: Active | Activity [15]: Active | pIC50 (MM1.S [16]): 5.61 | pIC50 (HeLa): 4.79 | pIC50 (A549): 4.91 | Activity [17]: Active | pKi [18]: 8.28 | Activity [19]: Active | Activity [20]: Active | Activity [21]: Active | Activity [22]: Active | Activity [23]: Dose-Dependent Effect | pKi [24]: 8.14 | Activity [25]: Dose-Dependent Effect | Activity [26]: Active | Activity [27]: Active | pIC50 (MV4-11): 7.93
Structure (SMILES): Cc1sc2c(c1C)C(c1ccc(Cl)cc1)=N[C@@H](CC(=O)NCCCCNC(=O)COc1cccc3c1C(=O)N(C1CCC(=O)NC1=O)C3=O)c1nnc(C)n1-2 (stereo partly drawn)
pIC50 (HGC-27): 6.06 | Activity (MM1.S [7]): Active

Reference: ChEMBL document CHEMBL5321219, “Selective degradation of cellular BRD3 and BRD4-L promoted by PROTAC molecules in six cancer cell lines” (Eur J Med Chem, 2023)
